This note sets out measurements from US9340590B2 (priority 2011, dated 2016).

Common to all, as to experiment: cell-based
One assay deals with hNav1.3 (Homo sapiens, UniProt Q9NY46). To be noted: IonWorks Quattro, use-dependent protocol, hNav1.3; read-out: IWQ Use Nav1.3. (In general: The patch-clamp technique gives a direct electrical read-out from membranes.)
The target in another assay is hNav1.5 (Homo sapiens, UniProt Q14524). The conditions noted are these: IonWorks Quattro, use-dependent protocol, hNav1.5; read-out: IWQ Use Nav1.5.
A further assay addresses hNav1.7 (Homo sapiens, UniProt Q15858). The format is cell-based. The conditions noted are these: IonWorks Quattro, use-dependent protocol, hNav1.7; read-out: IWQ Use Nav1.7.

Positions of bridges follow the written chain, without caps; N, C: chain ends. Non-standard residues stand in square brackets, D forms with d. Residues, ends and D or L forms follow the SMILES beside them. hPhe = N[C@@H](CCc1ccccc1)C(=O)O; Pra = C#CC[C@H](N)C(=O)O; Sar = CNCC(=O)O

Sequence of hNav1.3 (Q9NY46 whole entry, looked up): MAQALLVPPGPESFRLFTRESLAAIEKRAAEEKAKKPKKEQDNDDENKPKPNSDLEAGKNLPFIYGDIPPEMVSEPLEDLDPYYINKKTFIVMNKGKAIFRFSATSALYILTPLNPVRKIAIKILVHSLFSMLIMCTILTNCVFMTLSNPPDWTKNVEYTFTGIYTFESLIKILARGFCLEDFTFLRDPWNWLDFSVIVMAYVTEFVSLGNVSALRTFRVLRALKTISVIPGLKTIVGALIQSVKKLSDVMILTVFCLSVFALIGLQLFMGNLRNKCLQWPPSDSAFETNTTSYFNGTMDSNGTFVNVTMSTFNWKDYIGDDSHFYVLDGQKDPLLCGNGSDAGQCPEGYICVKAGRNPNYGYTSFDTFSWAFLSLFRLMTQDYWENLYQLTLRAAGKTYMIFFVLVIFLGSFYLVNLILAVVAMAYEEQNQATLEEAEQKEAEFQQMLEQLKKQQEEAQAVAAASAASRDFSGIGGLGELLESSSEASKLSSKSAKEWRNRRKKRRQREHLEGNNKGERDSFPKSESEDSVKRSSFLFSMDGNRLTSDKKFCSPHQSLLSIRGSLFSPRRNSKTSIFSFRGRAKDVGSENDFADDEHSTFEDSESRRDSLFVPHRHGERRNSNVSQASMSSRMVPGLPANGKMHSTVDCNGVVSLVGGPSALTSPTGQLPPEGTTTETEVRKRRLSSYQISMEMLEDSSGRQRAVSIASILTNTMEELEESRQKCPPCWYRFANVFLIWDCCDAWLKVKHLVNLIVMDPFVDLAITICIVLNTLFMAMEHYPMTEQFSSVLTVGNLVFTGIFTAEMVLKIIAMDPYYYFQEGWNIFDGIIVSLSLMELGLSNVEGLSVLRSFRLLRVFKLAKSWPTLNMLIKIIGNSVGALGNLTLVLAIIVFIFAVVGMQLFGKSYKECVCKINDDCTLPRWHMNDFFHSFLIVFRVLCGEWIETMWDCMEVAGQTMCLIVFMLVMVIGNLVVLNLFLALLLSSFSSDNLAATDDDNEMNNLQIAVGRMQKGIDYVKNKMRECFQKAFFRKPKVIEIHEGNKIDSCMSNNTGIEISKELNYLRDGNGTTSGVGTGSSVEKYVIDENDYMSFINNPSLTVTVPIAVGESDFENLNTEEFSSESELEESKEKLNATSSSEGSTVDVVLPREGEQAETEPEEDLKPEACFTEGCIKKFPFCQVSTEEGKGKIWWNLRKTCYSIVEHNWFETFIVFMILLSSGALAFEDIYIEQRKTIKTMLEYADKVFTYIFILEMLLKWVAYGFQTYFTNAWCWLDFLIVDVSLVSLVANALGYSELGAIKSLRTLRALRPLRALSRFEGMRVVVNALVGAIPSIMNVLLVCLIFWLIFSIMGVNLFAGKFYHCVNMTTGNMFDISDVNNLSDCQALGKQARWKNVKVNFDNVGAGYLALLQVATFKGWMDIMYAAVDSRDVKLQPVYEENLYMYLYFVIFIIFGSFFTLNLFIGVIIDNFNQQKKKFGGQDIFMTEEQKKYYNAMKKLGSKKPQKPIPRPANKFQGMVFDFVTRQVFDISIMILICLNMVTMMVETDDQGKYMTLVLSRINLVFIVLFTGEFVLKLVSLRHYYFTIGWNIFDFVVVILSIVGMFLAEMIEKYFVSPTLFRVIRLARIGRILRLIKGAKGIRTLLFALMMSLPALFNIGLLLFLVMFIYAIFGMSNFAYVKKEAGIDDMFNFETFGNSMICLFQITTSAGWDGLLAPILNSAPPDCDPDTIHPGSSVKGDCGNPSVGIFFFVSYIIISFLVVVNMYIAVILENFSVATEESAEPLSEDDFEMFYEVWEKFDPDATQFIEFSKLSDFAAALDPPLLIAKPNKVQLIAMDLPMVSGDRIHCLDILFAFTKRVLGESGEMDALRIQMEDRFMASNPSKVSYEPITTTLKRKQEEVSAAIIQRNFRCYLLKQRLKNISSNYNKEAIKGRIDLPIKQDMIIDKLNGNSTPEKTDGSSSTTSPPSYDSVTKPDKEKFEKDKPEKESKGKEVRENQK
Sequence of hNav1.7 (Q15858 whole entry, looked up): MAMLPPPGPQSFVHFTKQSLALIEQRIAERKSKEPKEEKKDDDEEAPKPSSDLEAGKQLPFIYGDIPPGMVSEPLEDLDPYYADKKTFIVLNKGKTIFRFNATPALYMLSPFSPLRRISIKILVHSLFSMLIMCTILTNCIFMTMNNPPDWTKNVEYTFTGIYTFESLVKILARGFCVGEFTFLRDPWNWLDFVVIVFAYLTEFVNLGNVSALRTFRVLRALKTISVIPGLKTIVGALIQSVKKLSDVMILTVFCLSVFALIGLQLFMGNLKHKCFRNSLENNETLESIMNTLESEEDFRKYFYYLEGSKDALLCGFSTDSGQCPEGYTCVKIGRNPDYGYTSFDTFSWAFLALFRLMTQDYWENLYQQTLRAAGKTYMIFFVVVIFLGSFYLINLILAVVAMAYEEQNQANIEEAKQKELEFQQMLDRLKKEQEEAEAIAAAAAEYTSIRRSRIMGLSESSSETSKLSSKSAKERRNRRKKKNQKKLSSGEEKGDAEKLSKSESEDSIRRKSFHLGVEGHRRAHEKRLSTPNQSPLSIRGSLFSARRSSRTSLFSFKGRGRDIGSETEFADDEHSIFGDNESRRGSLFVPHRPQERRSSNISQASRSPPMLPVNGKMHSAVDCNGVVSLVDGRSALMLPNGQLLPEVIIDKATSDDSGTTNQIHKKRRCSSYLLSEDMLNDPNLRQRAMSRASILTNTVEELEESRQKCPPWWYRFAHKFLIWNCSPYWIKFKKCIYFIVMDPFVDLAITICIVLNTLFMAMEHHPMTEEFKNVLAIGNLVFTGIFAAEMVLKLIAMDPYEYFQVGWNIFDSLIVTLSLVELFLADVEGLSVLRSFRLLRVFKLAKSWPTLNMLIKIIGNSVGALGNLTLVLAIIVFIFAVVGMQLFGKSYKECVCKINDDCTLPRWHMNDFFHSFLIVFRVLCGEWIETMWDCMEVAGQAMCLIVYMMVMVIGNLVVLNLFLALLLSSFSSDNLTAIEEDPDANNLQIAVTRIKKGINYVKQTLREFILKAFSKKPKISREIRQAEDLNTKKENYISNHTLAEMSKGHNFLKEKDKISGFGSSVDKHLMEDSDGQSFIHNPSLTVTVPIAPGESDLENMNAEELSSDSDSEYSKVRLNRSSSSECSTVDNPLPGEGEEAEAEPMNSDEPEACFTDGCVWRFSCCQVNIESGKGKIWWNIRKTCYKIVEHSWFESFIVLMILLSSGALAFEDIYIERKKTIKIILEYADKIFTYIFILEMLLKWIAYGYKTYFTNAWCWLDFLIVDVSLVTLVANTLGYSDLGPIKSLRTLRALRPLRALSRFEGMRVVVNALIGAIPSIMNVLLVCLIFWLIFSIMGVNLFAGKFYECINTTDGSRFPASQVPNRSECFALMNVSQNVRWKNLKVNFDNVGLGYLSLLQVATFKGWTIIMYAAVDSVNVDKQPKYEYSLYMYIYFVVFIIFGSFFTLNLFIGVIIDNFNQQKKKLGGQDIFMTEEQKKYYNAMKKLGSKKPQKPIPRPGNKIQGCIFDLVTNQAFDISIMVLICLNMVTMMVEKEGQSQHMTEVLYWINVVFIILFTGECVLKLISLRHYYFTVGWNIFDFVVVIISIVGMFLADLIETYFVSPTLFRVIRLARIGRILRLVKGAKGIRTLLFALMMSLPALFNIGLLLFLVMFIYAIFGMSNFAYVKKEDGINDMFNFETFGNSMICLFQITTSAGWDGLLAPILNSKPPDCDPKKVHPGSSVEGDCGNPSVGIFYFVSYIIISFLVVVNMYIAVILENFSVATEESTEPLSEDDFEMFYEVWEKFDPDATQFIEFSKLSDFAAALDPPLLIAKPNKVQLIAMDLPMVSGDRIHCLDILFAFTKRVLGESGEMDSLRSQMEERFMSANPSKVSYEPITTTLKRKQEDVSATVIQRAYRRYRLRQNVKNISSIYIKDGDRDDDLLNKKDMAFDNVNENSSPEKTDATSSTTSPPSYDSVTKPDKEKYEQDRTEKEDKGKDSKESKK

As to `CC[C@H](C)[C@@H]1NC(=O)[C@@H]2CSSC[C@@H]3NC(=O)[C@H](C(C)C)NC(=O)[C@H](CC(C)C)NC(=O)[C@H](CC(N)=O)NC(=O)[C@@H]4CCCN4C(=O)[C@H](CCCNC(=N)N)NC(=O)[C@H](CSSC[C@H](NC(=O)[C@@H](N)CC(=O)O)C(=O)N[C@@H](CC(C)C)C(=O)NCC(=O)N[C@@H](CCc4ccccc4)C(=O)N[C@@H](Cc4ccccc4)C(=O)N[C@@H](CCCNC(=N)N)C(=O)N[C@@H](CCCCN)C(=O)N2)NC(=O)[C@H](CSSC[C@@H](C(=O)N[C@@H](CCCCN)C(=O)N[C@@H](Cc2ccc(O)cc2)C(=O)N[C@H](C(=O)N[C@@H](Cc2ccccc2)C(N)=O)C(C)C)NC(=O)[C@H](Cc2c[nH]c4ccccc24)NC(=O)[C@H](CCCCN)NC(=O)[C@H](Cc2c[nH]cn2)NC(=O)[C@H]([C@@H](C)O)NC(=O)[C@H](CCCNC(=N)N)NC(=O)[C@H](CO)NC3=O)NC(=O)[C@H](CCCCN)NC(=O)[C@H](CC(=O)O)NC(=O)[C@H](CC(N)=O)NC(=O)[C@H](CC(=O)O)NC(=O)[C@@H]2CCCN2C1=O` [compound 631] (H-DCLG[hPhe]FRKCIPDNDKCCRPNLVCSRTHKWCKYVF-NH2; disulfide 2-17, 9-23, 16-30), the IC50 stood at 5 nM at hNav1.3, 4900 nM on hNav1.5 and 19 nM on hNav1.7.

On to `CC[C@H](C)[C@@H]1NC(=O)[C@@H]2CSSC[C@@H]3NC(=O)[C@H](C(C)C)NC(=O)[C@H](CC(C)C)NC(=O)[C@H](CC(N)=O)NC(=O)[C@@H]4CCCN4C(=O)[C@H](CCCNC(=N)N)NC(=O)[C@H](CSSC[C@H](NC(=O)[C@@H](N)CC(=O)O)C(=O)N[C@@H](CC(C)C)C(=O)NCC(=O)N(C)CC(=O)N[C@@H](Cc4ccccc4)C(=O)N[C@@H](CCCNC(=N)N)C(=O)N[C@@H](CCCCN)C(=O)N2)NC(=O)[C@H](CSSC[C@@H](C(=O)N[C@@H](CCCCN)C(=O)N[C@@H](Cc2ccc(O)cc2)C(=O)N[C@H](C(=O)N[C@@H](Cc2ccccc2)C(N)=O)C(C)C)NC(=O)[C@H](Cc2c[nH]c4ccccc24)NC(=O)[C@H](CCCCN)NC(=O)[C@H](Cc2c[nH]cn2)NC(=O)[C@H]([C@@H](C)O)NC(=O)[C@H](CCCNC(=N)N)NC(=O)[C@H](CO)NC3=O)NC(=O)[C@H](CCCCN)NC(=O)[C@H](CC(=O)O)NC(=O)[C@H](CC(N)=O)NC(=O)[C@H](CC(=O)O)NC(=O)[C@@H]2CCCN2C1=O` [compound 632] (H-DCLG[Sar]FRKCIPDNDKCCRPNLVCSRTHKWCKYVF-NH2; disulfide 2-17, 9-23, 16-30), for which the IC50 on hNav1.3 stood at 450 nM; at hNav1.5, 10500 nM; on hNav1.7, 680 nM.

As for `CC[C@H](C)[C@@H]1NC(=O)[C@@H]2CSSC[C@@H]3NC(=O)[C@H](C(C)C)NC(=O)[C@H](CC(C)C)NC(=O)[C@H](CC(N)=O)NC(=O)[C@@H]4CCCN4C(=O)[C@H](CCCNC(=N)N)NC(=O)[C@H](CSSC[C@H](NC(=O)[C@@H](N)CC(=O)O)C(=O)N[C@@H](CC(C)C)C(=O)NCC(=O)NCCC(=O)N[C@@H](CC(C)C)C(=O)N[C@@H](CCCNC(=N)N)C(=O)N[C@@H](CCCCN)C(=O)N2)NC(=O)[C@H](CSSC[C@@H](C(=O)N[C@@H](CCCCN)C(=O)N[C@@H](Cc2ccc(O)cc2)C(=O)N[C@H](C(=O)N[C@@H](Cc2ccccc2)C(N)=O)C(C)C)NC(=O)[C@H](Cc2c[nH]c4ccccc24)NC(=O)[C@H](CCCCN)NC(=O)[C@H](Cc2c[nH]cn2)NC(=O)[C@H]([C@@H](C)O)NC(=O)[C@H](CCCNC(=N)N)NC(=O)[C@H](CO)NC3=O)NC(=O)[C@H](CCCCN)NC(=O)[C@H](CC(=O)O)NC(=O)[C@H](CC(N)=O)NC(=O)[C@H](CC(=O)O)NC(=O)[C@@H]2CCCN2C1=O` [compound 634], the values for the IC50 at hNav1.3, on hNav1.5 and at hNav1.7 were 18100 nM, 14100 nM and 9300 nM, respectively.

Consider `CC[C@@H]1NC(=O)CNC(=O)[C@H](CC(C)C)NC(=O)[C@@H](NC(=O)[C@@H](N)CC(=O)O)CSSC[C@@H]2NC(=O)[C@@H]3CSSC[C@@H](C(=O)N[C@@H](CCCCN)C(=O)N[C@@H](Cc4ccc(O)cc4)C(=O)N[C@H](C(=O)N[C@@H](Cc4ccccc4)C(N)=O)C(C)C)NC(=O)[C@H](Cc4c[nH]c5ccccc45)NC(=O)[C@H](CCCCN)NC(=O)[C@H](Cc4c[nH]cn4)NC(=O)[C@H]([C@@H](C)O)NC(=O)[C@H](CCCNC(=N)N)NC(=O)[C@H](CO)NC(=O)[C@H](CSSC[C@H](NC(=O)[C@H](CCCCN)NC(=O)[C@H](CCCNC(=N)N)NC(=O)[C@H](CC(C)C)NC1=O)C(=O)N[C@@H]([C@@H](C)CC)C(=O)N1CCC[C@H]1C(=O)N[C@@H](CC(=O)O)C(=O)N[C@@H](CC(N)=O)C(=O)N[C@@H](CC(=O)O)C(=O)N[C@@H](CCCCN)C(=O)N3)NC(=O)[C@H](C(C)C)NC(=O)[C@H](CC(C)C)NC(=O)[C@H](CC(N)=O)NC(=O)[C@@H]1CCCN1C(=O)[C@H](CCCNC(=N)N)NC2=O` [compound 636], for which the IC50 at hNav1.3 was determined as 1000 nM; at hNav1.5, 16700 nM; at hNav1.7, 290 nM.

Regarding `CCC[C@@H]1NC(=O)CNC(=O)[C@H](CC(C)C)NC(=O)[C@@H](NC(=O)[C@@H](N)CC(=O)O)CSSC[C@@H]2NC(=O)[C@@H]3CSSC[C@@H](C(=O)N[C@@H](CCCCN)C(=O)N[C@@H](Cc4ccc(O)cc4)C(=O)N[C@H](C(=O)N[C@@H](Cc4ccccc4)C(N)=O)C(C)C)NC(=O)[C@H](Cc4c[nH]c5ccccc45)NC(=O)[C@H](CCCCN)NC(=O)[C@H](Cc4c[nH]cn4)NC(=O)[C@H]([C@@H](C)O)NC(=O)[C@H](CCCNC(=N)N)NC(=O)[C@H](CO)NC(=O)[C@H](CSSC[C@H](NC(=O)[C@H](CCCCN)NC(=O)[C@H](CCCNC(=N)N)NC(=O)[C@H](CC(C)C)NC1=O)C(=O)N[C@@H]([C@@H](C)CC)C(=O)N1CCC[C@H]1C(=O)N[C@@H](CC(=O)O)C(=O)N[C@@H](CC(N)=O)C(=O)N[C@@H](CC(=O)O)C(=O)N[C@@H](CCCCN)C(=O)N3)NC(=O)[C@H](C(C)C)NC(=O)[C@H](CC(C)C)NC(=O)[C@H](CC(N)=O)NC(=O)[C@@H]1CCCN1C(=O)[C@H](CCCNC(=N)N)NC2=O` [compound 637], the results for the IC50 on hNav1.3, on hNav1.5 and on hNav1.7 were 710 nM, 8000 nM and 95 nM, respectively.

As to `CCCC[C@@H]1NC(=O)CNC(=O)[C@H](CC(C)C)NC(=O)[C@@H](NC(=O)[C@@H](N)CC(=O)O)CSSC[C@@H]2NC(=O)[C@@H]3CSSC[C@@H](C(=O)N[C@@H](CCCCN)C(=O)N[C@@H](Cc4ccc(O)cc4)C(=O)N[C@H](C(=O)N[C@@H](Cc4ccccc4)C(N)=O)C(C)C)NC(=O)[C@H](Cc4c[nH]c5ccccc45)NC(=O)[C@H](CCCCN)NC(=O)[C@H](Cc4c[nH]cn4)NC(=O)[C@H]([C@@H](C)O)NC(=O)[C@H](CCCNC(=N)N)NC(=O)[C@H](CO)NC(=O)[C@H](CSSC[C@H](NC(=O)[C@H](CCCCN)NC(=O)[C@H](CCCNC(=N)N)NC(=O)[C@H](CC(C)C)NC1=O)C(=O)N[C@@H]([C@@H](C)CC)C(=O)N1CCC[C@H]1C(=O)N[C@@H](CC(=O)O)C(=O)N[C@@H](CC(N)=O)C(=O)N[C@@H](CC(=O)O)C(=O)N[C@@H](CCCCN)C(=O)N3)NC(=O)[C@H](C(C)C)NC(=O)[C@H](CC(C)C)NC(=O)[C@H](CC(N)=O)NC(=O)[C@@H]1CCCN1C(=O)[C@H](CCCNC(=N)N)NC2=O` [compound 638], the IC50 at hNav1.3 was 99 nM; on hNav1.5, 10600 nM; at hNav1.7, 25 nM.

`CCCCCCCC[C@@H]1NC(=O)CNC(=O)[C@H](CC(C)C)NC(=O)[C@@H](NC(=O)[C@@H](N)CC(=O)O)CSSC[C@@H]2NC(=O)[C@@H]3CSSC[C@@H](C(=O)N[C@@H](CCCCN)C(=O)N[C@@H](Cc4ccc(O)cc4)C(=O)N[C@H](C(=O)N[C@@H](Cc4ccccc4)C(N)=O)C(C)C)NC(=O)[C@H](Cc4c[nH]c5ccccc45)NC(=O)[C@H](CCCCN)NC(=O)[C@H](Cc4c[nH]cn4)NC(=O)[C@H]([C@@H](C)O)NC(=O)[C@H](CCCNC(=N)N)NC(=O)[C@H](CO)NC(=O)[C@H](CSSC[C@H](NC(=O)[C@H](CCCCN)NC(=O)[C@H](CCCNC(=N)N)NC(=O)[C@H](CC(C)C)NC1=O)C(=O)N[C@@H]([C@@H](C)CC)C(=O)N1CCC[C@H]1C(=O)N[C@@H](CC(=O)O)C(=O)N[C@@H](CC(N)=O)C(=O)N[C@@H](CC(=O)O)C(=O)N[C@@H](CCCCN)C(=O)N3)NC(=O)[C@H](C(C)C)NC(=O)[C@H](CC(C)C)NC(=O)[C@H](CC(N)=O)NC(=O)[C@@H]1CCCN1C(=O)[C@H](CCCNC(=N)N)NC2=O` [compound 639]: the IC50 on hNav1.3 amounted to 33 nM; at hNav1.5, 1700 nM; at hNav1.7, 15 nM.

`C#CC[C@@H]1NC(=O)[C@H](CC(=O)O)NC(=O)[C@@H]2CCCN2C(=O)[C@H]([C@@H](C)CC)NC(=O)[C@@H]2CSSC[C@@H]3NC(=O)[C@H](C(C)C)NC(=O)[C@H](CC(C)C)NC(=O)[C@H](CC(N)=O)NC(=O)[C@@H]4CCCN4C(=O)[C@H](CCCNC(=N)N)NC(=O)[C@H](CSSC[C@H](NC(=O)[C@@H](N)CC(=O)O)C(=O)N[C@@H](CC(C)C)C(=O)NCC(=O)N[C@@H](C)C(=O)N[C@@H](Cc4ccccc4)C(=O)N[C@@H](CCCNC(=N)N)C(=O)N[C@@H](CCCCN)C(=O)N2)NC(=O)[C@H](CSSC[C@@H](C(=O)N[C@@H](CCCCN)C(=O)N[C@@H](Cc2ccc(O)cc2)C(=O)N[C@H](C(=O)N[C@@H](Cc2ccccc2)C(N)=O)C(C)C)NC(=O)[C@H](Cc2c[nH]c4ccccc24)NC(=O)[C@H](CCCNC(=N)N)NC(=O)[C@H](Cc2c[nH]cn2)NC(=O)[C@H](CC(C)C)NC(=O)[C@H](CCCNC(=N)N)NC(=O)[C@H](CO)NC3=O)NC(=O)[C@H](CCCCN)NC(=O)[C@H](CC(=O)O)NC1=O` [compound 640] (H-DCLGAFRKCIPD[Pra]DKCCRPNLVCSRLHRWCKYVF-NH2; disulfide 2-17, 9-23, 16-30): the results for the IC50 on hNav1.3, on hNav1.5 and at hNav1.7 were 90 nM, over 5000 nM and 103 nM, respectively.
